Tests used:
[1] = target: T1, ATP-dependent translocase ABCB1 (Homo sapiens, UniProt P08183); assay: Inhibition of human Pgp mediated [3H]vinblastine transport in human Caco-2 cells; type: cell-based
[2] = Apparent permeability from apical to basolateral side of human Caco-2 cell membrane; type: ADME, cell-based
[3] = target: T1, ATP-dependent translocase ABCB1; assay: Activation of human Pgp ATPase in human Caco-2 cells at 100 uM; type: cell-based; settings: caco-2, 100 µM
[4] = Apparent permeability from basolateral to apical side of human Caco-2 cell membrane; type: ADME, cell-based
[5] = Ratio of apparent permeability from basolateral to apical over apical to basolateral side of human Caco-2 cell membrane
MCF7 [6] = assay: Antiproliferative activity against adriamycin resistant human MCF7 cells assessed by MTT assay at 100 uM after 48 hrs
[7] = target: T1, ATP-dependent translocase ABCB1; assay: Inhibition of human Pgp in adriamycin resistant MCF7 cells assessed as fold increase in accumulation of doxorubicin at 20 uM relative to control; type: cell-based; settings: mcf7, 20 µM
MCF7 [8] = assay: Cytotoxic activity against adriamycin resistant human MCF7 cells assessed as LDH release at 100 uM after 24 hrs; type: functional

T1 sequence (P08183 whole entry): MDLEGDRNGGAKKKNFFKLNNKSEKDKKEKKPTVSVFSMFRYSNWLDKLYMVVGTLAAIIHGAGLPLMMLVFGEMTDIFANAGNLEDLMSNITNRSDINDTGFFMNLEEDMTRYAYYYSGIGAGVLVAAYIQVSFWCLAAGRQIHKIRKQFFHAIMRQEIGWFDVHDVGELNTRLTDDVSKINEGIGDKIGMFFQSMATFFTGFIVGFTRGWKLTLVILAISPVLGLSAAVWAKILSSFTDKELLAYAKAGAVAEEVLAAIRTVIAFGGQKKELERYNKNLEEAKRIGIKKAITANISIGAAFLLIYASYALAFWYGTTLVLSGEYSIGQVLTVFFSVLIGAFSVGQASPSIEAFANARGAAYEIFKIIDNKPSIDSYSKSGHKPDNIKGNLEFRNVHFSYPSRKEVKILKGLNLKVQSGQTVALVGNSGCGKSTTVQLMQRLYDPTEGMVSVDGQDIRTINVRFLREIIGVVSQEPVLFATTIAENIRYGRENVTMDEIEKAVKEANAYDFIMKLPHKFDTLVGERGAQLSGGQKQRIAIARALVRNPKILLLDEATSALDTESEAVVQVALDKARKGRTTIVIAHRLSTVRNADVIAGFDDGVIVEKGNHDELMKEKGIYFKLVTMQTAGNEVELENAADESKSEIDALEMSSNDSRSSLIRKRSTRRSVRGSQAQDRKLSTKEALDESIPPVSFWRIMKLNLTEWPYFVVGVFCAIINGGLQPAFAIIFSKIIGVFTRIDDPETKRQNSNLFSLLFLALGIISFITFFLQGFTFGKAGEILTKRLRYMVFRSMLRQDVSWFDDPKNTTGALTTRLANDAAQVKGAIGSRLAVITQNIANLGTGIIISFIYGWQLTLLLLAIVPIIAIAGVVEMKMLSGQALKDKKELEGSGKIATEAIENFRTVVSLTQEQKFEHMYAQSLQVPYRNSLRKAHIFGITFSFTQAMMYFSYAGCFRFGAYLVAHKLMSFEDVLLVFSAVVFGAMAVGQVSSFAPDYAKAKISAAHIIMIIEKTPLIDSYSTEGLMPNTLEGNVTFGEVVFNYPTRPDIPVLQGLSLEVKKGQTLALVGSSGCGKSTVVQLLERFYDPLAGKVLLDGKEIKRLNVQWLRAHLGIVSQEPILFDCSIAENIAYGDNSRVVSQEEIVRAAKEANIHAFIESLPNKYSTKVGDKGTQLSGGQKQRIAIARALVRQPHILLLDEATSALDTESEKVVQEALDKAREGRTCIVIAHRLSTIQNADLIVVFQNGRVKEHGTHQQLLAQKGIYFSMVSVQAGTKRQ

| SMILES | EC50 [1] | Papp A→B [2] | Activity [3] | Papp B→A [4] | efflux ratio [5] | Activity (MCF7 [6]) | Activity [7] | Activity (MCF7 [8]) |
| --- | --- | --- | --- | --- | --- | --- | --- | --- |
| COc1cc2c(cc1OC)CN(CCCC1CCCc3cc(OC)c(OC)cc31)CC2 (stereo not drawn) | 17.9 µM | 86.8 ×10⁻⁶ cm/s | 62% | 440 ×10⁻⁶ cm/s | 5.1 |  |  |  |
| COc1ccc2c(c1)CCCC2CCCN1CCc2cc(OC)c(OC)cc2C1 (stereo not drawn) | 8.15 µM | 82.8 ×10⁻⁶ cm/s | 27% | 351 ×10⁻⁶ cm/s | 4.2 |  |  |  |
| COc1cc2c(cc1OC)CN(CCCC1CCCc3c(OC)cccc31)CC2 (stereo not drawn) | 6.35 µM | 5.6 ×10⁻⁶ cm/s | 70% | 104 ×10⁻⁶ cm/s | 18 | <20% | 4.8 | <20% |
| COc1ccc2c(c1)CCC=C2CCCN1CCc2cc(OC)c(OC)cc2C1 | 83.7 µM | 40.7 ×10⁻⁶ cm/s |  | 151 ×10⁻⁶ cm/s | 3.7 |  |  |  |
| COc1ccc2c(c1)C(CCCN1CCc3cc(OC)c(OC)cc3C1)=CCC2 | 35.5 µM | 61 ×10⁻⁶ cm/s | 20% | 332 ×10⁻⁶ cm/s | 5.4 |  |  |  |
| COc1cc2c(cc1OC)CN(CC/C=C1\CCCc3c(OC)cccc31)CC2 | 1.64 µM | 23.7 ×10⁻⁶ cm/s |  | 38.6 ×10⁻⁶ cm/s | 1.6 | 25% | 5.7 | <20% |
| COc1cc2c(cc1OC)CN(CCCC1=CCCc3cc(OC)c(OC)cc31)CC2 | 31.6 µM | 67.2 ×10⁻⁶ cm/s | 15% | 103 ×10⁻⁶ cm/s | 1.5 |  |  |  |
| COc1cccc2c1CCC/C2=C\CCN1CCCCC1 | 8.2 µM | 58.4 ×10⁻⁶ cm/s |  | 256 ×10⁻⁶ cm/s | 4.4 |  |  |  |
| COc1ccc2c(c1)C(CCCN1CCc3cc(OC)c(OC)cc3C1)CCC2 (stereo not drawn) | 10.2 µM | 46 ×10⁻⁶ cm/s | 15% | 170 ×10⁻⁶ cm/s | 3.7 |  |  |  |
| COc1ccc2c(c1)/C(=C/CCN1CCc3cc(OC)c(OC)cc3C1)CCC2 | 4.86 µM | 166 ×10⁻⁶ cm/s |  | 657 ×10⁻⁶ cm/s | 3.9 | <20% | 4.1 | <20% |
| COc1cc2c(cc1OC)CN(CCC=C1CCCCC1)CC2 | 15.2 µM | 77.4 ×10⁻⁶ cm/s |  | 240 ×10⁻⁶ cm/s | 3.1 |  |  |  |
| COc1cc2c(cc1OC)CN(CCCC1=CCCc3c(OC)cccc31)CC2 | 15 µM | 16 ×10⁻⁶ cm/s | 30% | 114 ×10⁻⁶ cm/s | 7.1 |  |  |  |
| COc1cccc2c1CCCC2CCCN1CCN(C2CCCCC2)CC1 (stereo not drawn) | 0.55 µM | 250 ×10⁻⁶ cm/s |  | 436 ×10⁻⁶ cm/s | 1.7 |  |  |  |

Source: ChEMBL document CHEMBL1143871, “Small P-gp modulating molecules: SAR studies on tetrahydroisoquinoline derivatives” (Bioorg Med Chem, 2008)
